# According to publication PMC7265341, “Quantifying CDK inhibitor selectivity in live cells” (Nature Communications, 2020):
# Like-named read-outs stand apart in the source and are kept apart here.
# Assays:
# [1] = target: CDK1/Cyclin E1 (Homo sapiens, UniProt P06493); assay: NanoBRET live-cell target engagement, CDK1-NanoLuc/Cyclin E1 in HEK-293; format: binding; details: CDK1/E1
# [2] = target: CDK2/Cyclin E1 (Homo sapiens, UniProt P24941); assay: NanoBRET live-cell target engagement, CDK2-NanoLuc/Cyclin E1 in HEK-293; format: binding; details: CDK2/E1
# [3] = target: CDK3/Cyclin E1 (Homo sapiens, UniProt Q00526); assay: NanoBRET live-cell target engagement, CDK3-NanoLuc/Cyclin E1 in HEK-293; format: binding; details: CDK3/E1
# [4] = target: CDK4/Cyclin D1 (Homo sapiens, UniProt P11802); assay: NanoBRET live-cell target engagement, NanoLuc-CDK4/Cyclin D1 in HEK-293; format: binding; details: CDK4/D1; for IC50: read-out: IC50
# [5] = target: CDK5/CDK5R1 (Homo sapiens, UniProt Q00535); assay: NanoBRET live-cell target engagement, CDK5-NanoLuc/CDK5R1 in HEK-293; format: binding; details: CDK5/CDK5R1
# CDK5/CDK5R1, sequence (Q00535 whole entry): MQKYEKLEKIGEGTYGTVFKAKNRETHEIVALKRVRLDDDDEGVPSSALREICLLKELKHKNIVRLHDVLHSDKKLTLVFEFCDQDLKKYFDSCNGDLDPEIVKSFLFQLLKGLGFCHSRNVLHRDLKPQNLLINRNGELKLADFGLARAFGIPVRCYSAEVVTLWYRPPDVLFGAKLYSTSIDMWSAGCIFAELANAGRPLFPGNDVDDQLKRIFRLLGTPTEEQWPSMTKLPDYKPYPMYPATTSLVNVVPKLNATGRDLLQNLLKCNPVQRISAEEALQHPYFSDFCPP
# CDK5/CDK5R1, sequence (Q15078 whole entry partner): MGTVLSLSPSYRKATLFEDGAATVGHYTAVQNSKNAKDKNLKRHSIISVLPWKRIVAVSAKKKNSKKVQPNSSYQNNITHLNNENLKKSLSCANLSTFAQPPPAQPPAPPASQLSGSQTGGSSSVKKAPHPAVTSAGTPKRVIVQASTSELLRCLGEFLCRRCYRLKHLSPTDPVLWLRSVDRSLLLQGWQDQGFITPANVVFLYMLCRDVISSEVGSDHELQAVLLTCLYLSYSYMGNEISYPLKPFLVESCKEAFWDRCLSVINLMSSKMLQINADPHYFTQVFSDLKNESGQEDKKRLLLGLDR
# [6] = target: CDK6/Cyclin D1 (Homo sapiens, UniProt Q00534); assay: NanoBRET live-cell target engagement, NanoLuc-CDK6/Cyclin D1 in HEK-293; format: binding; details: CDK6/D1; for IC50: read-out: IC50
# CDK6/Cyclin D1, sequence (Q00534 whole entry): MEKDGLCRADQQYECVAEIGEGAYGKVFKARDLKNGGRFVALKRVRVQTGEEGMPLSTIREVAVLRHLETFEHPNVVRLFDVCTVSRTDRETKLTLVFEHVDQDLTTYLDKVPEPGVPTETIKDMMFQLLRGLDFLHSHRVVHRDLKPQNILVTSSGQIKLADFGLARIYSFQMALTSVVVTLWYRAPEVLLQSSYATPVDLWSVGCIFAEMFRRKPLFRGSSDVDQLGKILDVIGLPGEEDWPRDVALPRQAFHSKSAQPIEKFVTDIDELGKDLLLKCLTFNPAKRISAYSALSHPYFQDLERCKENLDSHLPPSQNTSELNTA
# CDK6/Cyclin D1, sequence (P24385 whole entry partner): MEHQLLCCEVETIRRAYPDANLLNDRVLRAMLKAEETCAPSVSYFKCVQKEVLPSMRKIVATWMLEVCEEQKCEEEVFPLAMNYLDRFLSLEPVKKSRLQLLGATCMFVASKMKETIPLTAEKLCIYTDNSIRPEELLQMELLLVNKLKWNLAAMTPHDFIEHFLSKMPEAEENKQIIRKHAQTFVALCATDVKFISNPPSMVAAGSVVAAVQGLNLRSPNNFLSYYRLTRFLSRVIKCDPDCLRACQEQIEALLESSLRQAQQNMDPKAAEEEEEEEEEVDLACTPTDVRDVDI
# [7] = target: CDK7 (Homo sapiens, UniProt P50613); assay: NanoBRET live-cell target engagement, NanoLuc-CDK7 in HEK-293; format: binding; details: CDK7
# CDK7, sequence (P50613 whole entry): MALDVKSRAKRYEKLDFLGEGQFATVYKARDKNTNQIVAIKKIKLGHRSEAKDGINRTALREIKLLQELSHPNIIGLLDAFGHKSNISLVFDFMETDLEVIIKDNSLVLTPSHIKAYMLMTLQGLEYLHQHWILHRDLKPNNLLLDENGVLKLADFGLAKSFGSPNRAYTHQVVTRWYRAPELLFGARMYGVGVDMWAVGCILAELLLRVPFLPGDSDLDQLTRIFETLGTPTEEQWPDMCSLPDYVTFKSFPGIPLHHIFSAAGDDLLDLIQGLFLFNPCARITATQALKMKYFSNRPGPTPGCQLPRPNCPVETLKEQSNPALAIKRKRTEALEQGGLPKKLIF
# [8] = target: CDK8/Cyclin C (Homo sapiens, UniProt P49336); assay: NanoBRET live-cell target engagement, NanoLuc-CDK8/Cyclin C in HEK-293; format: binding; details: CDK8/C
# CDK8/Cyclin C, sequence (P49336 whole entry): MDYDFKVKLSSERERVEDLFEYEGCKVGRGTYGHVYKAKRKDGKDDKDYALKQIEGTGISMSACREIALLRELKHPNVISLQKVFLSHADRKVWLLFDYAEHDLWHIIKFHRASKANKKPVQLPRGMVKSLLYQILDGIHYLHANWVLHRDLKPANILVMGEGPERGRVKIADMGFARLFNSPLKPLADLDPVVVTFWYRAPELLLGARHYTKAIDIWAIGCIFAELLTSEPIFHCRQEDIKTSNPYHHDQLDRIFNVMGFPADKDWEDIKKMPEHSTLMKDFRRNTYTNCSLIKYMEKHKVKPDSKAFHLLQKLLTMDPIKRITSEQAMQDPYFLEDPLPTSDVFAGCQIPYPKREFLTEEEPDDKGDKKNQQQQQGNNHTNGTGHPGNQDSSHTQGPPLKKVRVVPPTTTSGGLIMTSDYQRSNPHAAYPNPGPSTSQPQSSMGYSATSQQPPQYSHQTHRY
# CDK8/Cyclin C, sequence (P24863 whole entry partner): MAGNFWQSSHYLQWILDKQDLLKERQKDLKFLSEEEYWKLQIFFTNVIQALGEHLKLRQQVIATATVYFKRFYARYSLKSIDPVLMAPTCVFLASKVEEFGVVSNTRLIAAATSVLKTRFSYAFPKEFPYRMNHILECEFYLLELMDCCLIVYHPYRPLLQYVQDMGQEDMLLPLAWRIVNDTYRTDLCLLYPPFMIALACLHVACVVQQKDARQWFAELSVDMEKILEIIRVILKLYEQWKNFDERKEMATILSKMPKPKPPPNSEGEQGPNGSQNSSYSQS
# [9] = target: CDK9/Cyclin K (Homo sapiens, UniProt P50750); assay: NanoBRET live-cell target engagement, NanoLuc-CDK9/Cyclin K in HEK-293; format: binding; details: CDK9/K
# CDK9/Cyclin K, sequence (P50750 whole entry): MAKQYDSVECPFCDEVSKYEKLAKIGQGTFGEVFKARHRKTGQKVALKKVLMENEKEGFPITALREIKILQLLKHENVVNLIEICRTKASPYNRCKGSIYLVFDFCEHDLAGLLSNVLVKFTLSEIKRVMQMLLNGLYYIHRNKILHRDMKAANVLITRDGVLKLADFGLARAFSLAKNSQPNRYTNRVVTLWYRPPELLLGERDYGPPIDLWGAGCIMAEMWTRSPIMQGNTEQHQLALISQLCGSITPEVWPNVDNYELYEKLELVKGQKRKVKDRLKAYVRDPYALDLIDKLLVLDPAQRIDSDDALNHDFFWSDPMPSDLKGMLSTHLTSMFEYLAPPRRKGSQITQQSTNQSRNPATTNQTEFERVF
# CDK9/Cyclin K, sequence (O75909 whole entry partner): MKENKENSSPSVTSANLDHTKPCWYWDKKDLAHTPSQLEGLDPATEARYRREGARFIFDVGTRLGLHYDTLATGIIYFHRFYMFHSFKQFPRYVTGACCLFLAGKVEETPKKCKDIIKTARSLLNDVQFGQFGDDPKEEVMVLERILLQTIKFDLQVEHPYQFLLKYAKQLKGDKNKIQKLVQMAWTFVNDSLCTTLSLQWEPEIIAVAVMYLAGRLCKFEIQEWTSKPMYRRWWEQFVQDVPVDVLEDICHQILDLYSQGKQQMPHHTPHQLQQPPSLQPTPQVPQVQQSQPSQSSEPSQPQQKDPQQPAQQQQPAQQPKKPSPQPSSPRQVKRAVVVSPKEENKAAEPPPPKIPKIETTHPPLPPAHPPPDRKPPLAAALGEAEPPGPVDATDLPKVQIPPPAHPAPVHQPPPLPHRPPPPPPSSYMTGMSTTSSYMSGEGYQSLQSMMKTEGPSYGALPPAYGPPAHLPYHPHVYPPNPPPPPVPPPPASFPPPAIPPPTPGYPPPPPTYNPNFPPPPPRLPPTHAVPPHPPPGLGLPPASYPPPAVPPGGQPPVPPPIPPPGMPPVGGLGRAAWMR
# [10] = target: T1, CDK11A/Cyclin L2 (Homo sapiens, UniProt Q9UQ88); assay: NanoBRET live-cell target engagement, CDK11A-NanoLuc/Cyclin L2 in HEK-293; format: binding; details: CDK11a/L2
# T1 sequence (Q9UQ88 1-783): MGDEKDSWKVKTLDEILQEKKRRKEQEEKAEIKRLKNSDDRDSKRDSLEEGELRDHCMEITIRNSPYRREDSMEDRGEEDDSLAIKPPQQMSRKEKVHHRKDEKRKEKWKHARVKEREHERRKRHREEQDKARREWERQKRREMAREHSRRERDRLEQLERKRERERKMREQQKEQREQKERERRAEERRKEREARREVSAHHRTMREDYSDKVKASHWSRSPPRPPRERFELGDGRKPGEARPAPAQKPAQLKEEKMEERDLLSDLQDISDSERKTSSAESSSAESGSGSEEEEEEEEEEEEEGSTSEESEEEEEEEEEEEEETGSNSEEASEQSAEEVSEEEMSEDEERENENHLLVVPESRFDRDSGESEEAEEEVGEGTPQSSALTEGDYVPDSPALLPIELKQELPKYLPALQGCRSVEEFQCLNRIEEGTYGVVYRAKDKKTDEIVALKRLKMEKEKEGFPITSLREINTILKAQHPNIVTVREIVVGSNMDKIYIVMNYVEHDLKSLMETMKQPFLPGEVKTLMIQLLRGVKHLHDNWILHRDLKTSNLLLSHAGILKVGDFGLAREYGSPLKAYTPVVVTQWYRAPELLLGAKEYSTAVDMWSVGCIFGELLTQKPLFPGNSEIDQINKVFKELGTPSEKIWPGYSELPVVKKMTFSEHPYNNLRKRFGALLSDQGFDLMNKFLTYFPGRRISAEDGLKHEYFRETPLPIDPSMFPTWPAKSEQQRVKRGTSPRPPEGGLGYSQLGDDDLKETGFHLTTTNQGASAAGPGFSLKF
# [11] = target: CDK11B/Cyclin L2 (Homo sapiens, UniProt P21127); assay: NanoBRET live-cell target engagement, CDK11B-NanoLuc/Cyclin L2 in HEK-293; format: binding; details: CDK11b/L2
# [12] = target: CDK14/Cyclin Y (Homo sapiens, UniProt O94921); assay: NanoBRET live-cell target engagement, CDK14-NanoLuc/Cyclin Y in HEK-293; format: binding; details: CDK14/Y
# [13] = target: CDK15/Cyclin Y (Homo sapiens, UniProt Q96Q40); assay: NanoBRET live-cell target engagement, NanoLuc-CDK15/Cyclin Y in HEK-293; format: binding; details: CDK15/Y
# [14] = target: CDK16/Cyclin Y (Homo sapiens, UniProt Q00536); assay: NanoBRET live-cell target engagement, CDK16-NanoLuc/Cyclin Y in HEK-293; format: binding; details: CDK16/Y
# [15] = target: CDK17/Cyclin Y (Homo sapiens, UniProt Q00537); assay: NanoBRET live-cell target engagement, CDK17-NanoLuc/Cyclin Y in HEK-293; format: binding; details: CDK17/Y
# CDK17/Cyclin Y, sequence (Q00537 whole entry): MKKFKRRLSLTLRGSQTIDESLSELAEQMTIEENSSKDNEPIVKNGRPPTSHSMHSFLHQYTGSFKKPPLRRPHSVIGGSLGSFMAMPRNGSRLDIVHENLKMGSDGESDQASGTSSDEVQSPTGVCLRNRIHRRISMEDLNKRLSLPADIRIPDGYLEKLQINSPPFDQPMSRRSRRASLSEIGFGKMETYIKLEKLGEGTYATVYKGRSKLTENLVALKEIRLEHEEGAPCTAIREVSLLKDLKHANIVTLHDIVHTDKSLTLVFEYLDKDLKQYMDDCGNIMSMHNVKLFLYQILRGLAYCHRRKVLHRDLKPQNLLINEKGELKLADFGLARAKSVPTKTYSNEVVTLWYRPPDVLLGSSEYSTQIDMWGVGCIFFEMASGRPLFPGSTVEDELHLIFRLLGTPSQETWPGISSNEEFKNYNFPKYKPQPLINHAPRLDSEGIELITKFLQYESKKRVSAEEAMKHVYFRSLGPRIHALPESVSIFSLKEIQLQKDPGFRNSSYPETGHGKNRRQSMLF
# CDK17/Cyclin Y, sequence (Q8ND76 whole entry partner): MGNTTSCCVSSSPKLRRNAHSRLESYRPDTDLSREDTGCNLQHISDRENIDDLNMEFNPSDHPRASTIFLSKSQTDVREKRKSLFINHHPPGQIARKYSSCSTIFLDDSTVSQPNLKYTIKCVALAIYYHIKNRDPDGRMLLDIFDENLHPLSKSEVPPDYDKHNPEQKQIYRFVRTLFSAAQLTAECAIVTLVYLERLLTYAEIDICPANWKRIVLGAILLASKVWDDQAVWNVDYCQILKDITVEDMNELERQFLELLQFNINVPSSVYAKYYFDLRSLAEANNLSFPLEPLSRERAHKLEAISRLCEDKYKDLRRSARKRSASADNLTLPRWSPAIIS
# [16] = target: CDK18/Cyclin Y (Homo sapiens, UniProt Q07002); assay: NanoBRET live-cell target engagement, CDK18-NanoLuc/Cyclin Y in HEK-293; format: binding; details: CDK18/Y
# CDK18/Cyclin Y, sequence (Q07002 whole entry): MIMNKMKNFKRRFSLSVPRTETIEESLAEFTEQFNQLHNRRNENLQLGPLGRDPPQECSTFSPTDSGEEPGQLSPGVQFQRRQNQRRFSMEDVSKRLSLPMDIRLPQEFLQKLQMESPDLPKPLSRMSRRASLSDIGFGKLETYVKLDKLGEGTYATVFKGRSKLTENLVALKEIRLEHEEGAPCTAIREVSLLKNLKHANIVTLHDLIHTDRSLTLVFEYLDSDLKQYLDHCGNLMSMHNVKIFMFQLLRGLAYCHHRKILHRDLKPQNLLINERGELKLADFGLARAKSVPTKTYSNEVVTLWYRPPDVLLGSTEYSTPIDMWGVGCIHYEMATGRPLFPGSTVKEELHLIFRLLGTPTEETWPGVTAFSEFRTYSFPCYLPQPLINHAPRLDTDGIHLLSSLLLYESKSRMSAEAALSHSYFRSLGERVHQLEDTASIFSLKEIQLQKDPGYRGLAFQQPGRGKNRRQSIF
# CDK18/Cyclin Y, sequence (Q8ND76 whole entry partner): as the sequence (Q8ND76 whole entry partner) above
# [17] = target: CDK20/Cyclin H (Homo sapiens, UniProt Q8IZL9); assay: NanoBRET live-cell target engagement, NanoLuc-CDK20/Cyclin H in HEK-293; format: binding; details: CDK20/H
# [18] = target: CDK19/Cyclin C (Homo sapiens, UniProt Q9BWU1); assay: NanoBRET live-cell target engagement, NanoLuc-CDK19/Cyclin C in HEK-293; details: CDK19/C
# [19] = target: CDK10/Cyclin L2 (Homo sapiens, UniProt Q15131); assay: NanoBRET live-cell target engagement, CDK10-NanoLuc/Cyclin L2 in HEK-293; details: CDK10/L2
compound,measurement,setting,value
CN1CCC(c2c(O)cc(O)c3c(=O)cc(-c4ccccc4Cl)oc23)C1CO (stereo not drawn) [P276-00],Inhibition at 10µM (%),[1]; average,41.0%
same,Inhibition at 10µM (%),[1]; experiment 1,45.9%
same,Inhibition at 10µM (%),[1]; experiment 2,36.2%
same,Inhibition at 10µM (%),[2]; average,22.7%
same,Inhibition at 10µM (%),[2]; experiment 1,16.7%
same,Inhibition at 10µM (%),[2]; experiment 2,28.7%
same,Inhibition at 10µM (%),[3]; average,51.8%
same,Inhibition at 10µM (%),[3]; experiment 1,52.6%
same,Inhibition at 10µM (%),[3]; experiment 2,51.0%
same,Inhibition at 10µM (%),[4]; average,80.8%
same,IC50,[4]; average (± SEM where n=3),400 ± 100 nM
same,Inhibition at 10µM (%),[4]; experiment 1,79.0%
same,IC50,[4]; experiment 1,690 nM
same,Inhibition at 10µM (%),[4]; experiment 2,82.6%
same,IC50,[4]; experiment 2,200 nM
same,IC50,[4]; experiment 3,301 nM
same,Inhibition at 10µM (%),[5]; average,26.1%
same,Inhibition at 10µM (%),[5]; experiment 1,31.1%
same,Inhibition at 10µM (%),[5]; experiment 2,21.1%
same,Inhibition at 10µM (%),[6]; average,83.0%
same,IC50,[6]; average (± SEM where n=3),500 ± 100 nM
same,Inhibition at 10µM (%),[6]; experiment 1,78.3%
same,IC50,[6]; experiment 1,550 nM
same,Inhibition at 10µM (%),[6]; experiment 2,87.7%
same,IC50,[6]; experiment 2,220 nM
same,IC50,[6]; experiment 3,659 nM
same,Inhibition at 10µM (%),[7]; average,32.2%
same,Inhibition at 10µM (%),[7]; experiment 1,38.1%
same,Inhibition at 10µM (%),[7]; experiment 2,26.2%
same,Inhibition at 10µM (%),[8]; average,79.0%
same,Inhibition at 10µM (%),[8]; experiment 1,82.7%
same,Inhibition at 10µM (%),[8]; experiment 2,75.3%
same,Inhibition at 10µM (%),[9]; average,96.7%
same,Inhibition at 10µM (%),[9]; experiment 1,94.9%
same,Inhibition at 10µM (%),[9]; experiment 2,98.4%
same,Inhibition at 10µM (%),[10]; average,34.1%
same,Inhibition at 10µM (%),[10]; experiment 1,43.4%
same,Inhibition at 10µM (%),[10]; experiment 2,24.8%
same,Inhibition at 10µM (%),[11]; average,58.5%
same,Inhibition at 10µM (%),[11]; experiment 1,56.7%
same,Inhibition at 10µM (%),[11]; experiment 2,60.4%
same,Inhibition at 10µM (%),[12]; average,50.9%
same,Inhibition at 10µM (%),[12]; experiment 1,51.1%
same,Inhibition at 10µM (%),[12]; experiment 2,50.7%
same,Inhibition at 10µM (%),[13]; average,28.5%
same,Inhibition at 10µM (%),[13]; experiment 1,33.3%
same,Inhibition at 10µM (%),[13]; experiment 2,23.7%
same,Inhibition at 10µM (%),[14]; experiment 1,61.8%
same,Inhibition at 10µM (%),[14]; experiment 2,61.2%
same,Inhibition at 10µM (%),[15]; average,71.1%
same,Inhibition at 10µM (%),[15]; experiment 1,75.5%
same,Inhibition at 10µM (%),[15]; experiment 2,66.7%
same,Inhibition at 10µM (%),[16]; average,57.3%
same,Inhibition at 10µM (%),[16]; experiment 1,55.4%
same,Inhibition at 10µM (%),[16]; experiment 2,59.3%
same,Inhibition at 10µM (%),[17]; experiment 1,-0.6%
same,Inhibition at 10µM (%),[17]; experiment 2,-6.9%
same,Inhibition at 10µM (%),[18]; average,72.1%
same,Inhibition at 10µM (%),[18]; experiment 1,76.3%
same,Inhibition at 10µM (%),[18]; experiment 2,67.9%
same,Inhibition at 10µM (%),[19]; average,11.6%
same,Inhibition at 10µM (%),[19]; experiment 1,10.1%
same,Inhibition at 10µM (%),[19]; experiment 2,13.1%
